# Measurements: paper PMC11274453, “Structural and Thermodynamic Insights into Dimerization Interfaces of Drosophila Glutathione Transferases” (Biomolecules, 2024)
# T1: DmGSTE1 (Drosophila melanogaster, UniProt Q7KK90)
# T1 construct: gene GstE1; recombinant, codon-optimized gene in pET28a (NdeI/SacI), E. coli; homodimer; residues Ser2-Asp223 described in the structure
# T1 sequence (Q7KK90 1-224): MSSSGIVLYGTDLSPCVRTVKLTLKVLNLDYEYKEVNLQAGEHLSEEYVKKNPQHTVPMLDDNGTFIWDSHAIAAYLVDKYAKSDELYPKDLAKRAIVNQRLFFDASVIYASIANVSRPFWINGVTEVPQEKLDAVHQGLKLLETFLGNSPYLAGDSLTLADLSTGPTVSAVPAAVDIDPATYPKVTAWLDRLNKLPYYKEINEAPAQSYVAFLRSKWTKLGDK
# Assays:
# DmGSTE1 [1] = target: T1, DmGSTE1; experiment: X-ray crystal structure, […] Å; assay type: binding; conditions: G site; mixture with reduced glutathione at equal occupancies; sulfoxide H-bonds Ser14
# DmGSTE1 [2] = target: T1, DmGSTE1; experiment: spectrophotometric CDNB conjugation, […] nm, Michaelis-Menten fit; assay type: biochemical; conditions: 2 mM GSH; 100 mM sodium phosphate pH 6.5; 25 °C; 50 nM enzyme
# [3] = target: the molecule itself; experiment: crystal structure; sitting-drop vapour diffusion at 4 °C; 15 mg/mL DmGSTE1 in 20 mM Tris-HCl pH 7.4; 20% w/v PEG 8000, 100 mM MES pH 6.0, 200 mM Ca acetate; space group P212121, one dimer in the asymmetric unit; glutathione bound
molecule,measurement,setting,value
N[C@@H](CCC(=O)N[C@@H](CSO)C(=O)NCC(=O)O)C(=O)O [GS8],"X-ray crystal structure, 1.80 Å",DmGSTE1 [1],occupied by a mixture of glutathione and glutathione sulfoxide refined with equal occupancies
"O=[N+]([O-])c1ccc(Cl)c([N+](=O)[O-])c1 [CDNB, 1-chloro-2,4-dinitrobenzene]",Km,DmGSTE1 [2],15 ± 4 µM
"Drosophila melanogaster GSTE1 (enzyme, Glutathione S-transferase E1 (Epsilon class), Drosophila melanogaster; the crystal model is described as Ser2-Tyr88 (N-terminal thioredoxin domain) and Pro89-Asp223 (C-terminal domain); Cloned in pET28a between NdeI and SacI; Crystallised with glutathione / glutathione sulfoxide in the G site; also called DmGSTE1; source: E. coli, purified (GSTrap Fast Flow, eluted with 10 mM reduced glutathione, …)) MSSSGIVLYGTDLSPCVRTVKLTLKVLNLDYEYKEVNLQAGEHLSEEYVKKNPQHTVPMLDDNGTFIWDSHAIAAYLVDKYAKSDELYPKDLAKRAIVNQRLFFDASVIYASIANVSRPFWINGVTEVPQEKLDAVHQGLKLLETFLGNSPYLAGDSLTLADLSTGPTVSAVPAAVDIDPATYPKVTAWLDRLNKLPYYKEINEAPAQSYVAFLRSKWTKLGDK",stoichiometry N,[3],2
